Laboratory results reported in PubChem BioAssay (NCI).
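GI50 is the concentration that inhibits growth by half. TGI marks complete inhibition of growth.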

Tests used:
Experiment in all cases: NCI-60 cell line screen, 384-well format
UO-31 renal = test system: UO-31 renal
M14 melanoma = test system: M14 melanoma
HT29 colon = test system: HT29 colon
NCI/ADR-RES ovarian = test system: NCI/ADR-RES ovarian
K-562 leukemia = test system: K-562 leukemia
HCC-2998 colon = test system: HCC-2998 colon
NCI-H226 lung = test system: NCI-H226 lung
OVCAR-8 ovarian = test system: OVCAR-8 ovarian
MOLT-4 leukemia = test system: MOLT-4 leukemia
UACC-257 melanoma = test system: UACC-257 melanoma
CCRF-CEM leukemia = test system: CCRF-CEM leukemia
A498 renal = test system: A498 renal
MDA-MB-468 breast = test system: MDA-MB-468 breast
IGROV1 ovarian = test system: IGROV1 ovarian
NCI-H522 lung = test system: NCI-H522 lung
BT-549 breast = test system: BT-549 breast
SK-OV-3 ovarian = test system: SK-OV-3 ovarian
U251 glioblastoma = test system: U251 glioblastoma
HOP-62 NSCLC = test system: HOP-62 NSCLC
SK-MEL-5 melanoma = test system: SK-MEL-5 melanoma
OVCAR-3 ovarian = test system: OVCAR-3 ovarian
CAKI-1 renal = test system: CAKI-1 renal
A549 NSCLC = test system: A549 NSCLC
SN12C renal = test system: SN12C renal
SW-620 colon = test system: SW-620 colon
T-47D breast = test system: T-47D breast
COLO 205 colon = test system: COLO 205 colon
SR leukemia = test system: SR leukemia
NCI-H322M lung = test system: NCI-H322M lung
PC-3 prostate = test system: PC-3 prostate
NCI-H23 lung = test system: NCI-H23 lung
KM12 colon = test system: KM12 colon
ACHN renal = test system: ACHN renal
SF-295 CNS = test system: SF-295 CNS
TK-10 renal = test system: TK-10 renal
OVCAR-5 ovarian = test system: OVCAR-5 ovarian
UACC-62 melanoma = test system: UACC-62 melanoma
MDA-MB-231 breast = test system: MDA-MB-231 breast
SF-268 CNS = test system: SF-268 CNS
SF-539 CNS = test system: SF-539 CNS
MALME-3M melanoma = test system: MALME-3M melanoma
SNB-19 CNS = test system: SNB-19 CNS
OVCAR-4 ovarian = test system: OVCAR-4 ovarian
HL-60(TB) leukemia = test system: HL-60(TB) leukemia
RXF 393 renal = test system: RXF 393 renal
DU-145 prostate = test system: DU-145 prostate
LOX IMVI melanoma = test system: LOX IMVI melanoma
SK-MEL-28 melanoma = test system: SK-MEL-28 melanoma
HOP-92 NSCLC = test system: HOP-92 NSCLC
MCF7 breast = test system: MCF7 breast
HCT-15 colon = test system: HCT-15 colon
786-0 renal = test system: 786-0 renal
NCI-H460 NSCLC = test system: NCI-H460 NSCLC
HCT-116 colon = test system: HCT-116 colon
SK-MEL-2 melanoma = test system: SK-MEL-2 melanoma
MDA-MB-435 melanoma = test system: MDA-MB-435 melanoma

For `N[C@@H](CSSC[C@H](N)C(=O)N1CCn2cc(-c3ccccc3)nc2[C@@H]1CC1CCCCC1)C(=O)N1CCn2cc(-c3ccccc3)nc2[C@@H]1CC1CCCCC1`, which GI50 (UO-31 renal) is on record?
Its GI50 is 2.07 µM.

And the TGI (UO-31 renal)?
The TGI was 3.96 µM.

And the GI50 (M14 melanoma)?
The GI50 was 0.146 µM.

What about the TGI (M14 melanoma) of the same compound?
Its TGI is 0.355 µM.

What about the GI50 (HT29 colon) of the same compound?
Its GI50 is 1.47 µM.

What about the TGI (HT29 colon) of the same compound?
The TGI was 2.84 µM.

What about the GI50 (NCI/ADR-RES ovarian) of the same compound?
The GI50 was 2.35 µM.

What about the TGI (NCI/ADR-RES ovarian) of the same compound?
Its TGI is 5.41 µM.

What about the GI50 (K-562 leukemia) of the same compound?
Its GI50 is 0.551 µM.

And the TGI (K-562 leukemia)?
Its TGI is 1.74 µM.

And the GI50 (HCC-2998 colon)?
Its GI50 is 1.7 µM.

What about the TGI (HCC-2998 colon) of the same compound?
Its TGI is 3.08 µM.

And the GI50 (NCI-H226 lung)?
Its GI50 is 1.82 µM.

And the TGI (NCI-H226 lung)?
The TGI was 3.26 µM.

What about the GI50 (OVCAR-8 ovarian) of the same compound?
The GI50 was 1.62 µM.

And the TGI (OVCAR-8 ovarian)?
The TGI was 2.98 µM.

What about the GI50 (MOLT-4 leukemia) of the same compound?
The GI50 was 0.14 µM.

And the TGI (MOLT-4 leukemia)?
Its TGI is 0.271 µM.

And the GI50 (UACC-257 melanoma)?
Its GI50 is 0.257 µM.

And the TGI (UACC-257 melanoma)?
Its TGI is 0.702 µM.

What about the GI50 (CCRF-CEM leukemia) of the same compound?
The GI50 was 0.294 µM.

What about the TGI (CCRF-CEM leukemia) of the same compound?
The TGI was 1.27 µM.

And the GI50 (A498 renal)?
The GI50 was 1.63 µM.

And the TGI (A498 renal)?
The TGI was 3 µM.

And the GI50 (MDA-MB-468 breast)?
The GI50 was 1.08 µM.

And the TGI (MDA-MB-468 breast)?
Its TGI is 2.28 µM.

And the GI50 (IGROV1 ovarian)?
Its GI50 is 1.6 µM.

What about the TGI (IGROV1 ovarian) of the same compound?
The TGI was 3.31 µM.

And the GI50 (NCI-H522 lung)?
Its GI50 is 1.61 µM.

What about the TGI (NCI-H522 lung) of the same compound?
Its TGI is 2.97 µM.

And the GI50 (BT-549 breast)?
Its GI50 is 1.84 µM.

And the TGI (BT-549 breast)?
The TGI was 3.25 µM.

What about the GI50 (SK-OV-3 ovarian) of the same compound?
Its GI50 is 0.242 µM.

And the TGI (SK-OV-3 ovarian)?
The TGI was 1.8 µM.

And the GI50 (U251 glioblastoma)?
Its GI50 is 0.571 µM.

What about the TGI (U251 glioblastoma) of the same compound?
The TGI was 1.89 µM.

What about the GI50 (HOP-62 NSCLC) of the same compound?
Its GI50 is 1.25 µM.

What about the TGI (HOP-62 NSCLC) of the same compound?
The TGI was 2.53 µM.

What about the GI50 (SK-MEL-5 melanoma) of the same compound?
The GI50 was 0.194 µM.

And the TGI (SK-MEL-5 melanoma)?
Its TGI is 1.3 µM.

And the GI50 (OVCAR-3 ovarian)?
Its GI50 is 1.1 µM.

What about the TGI (OVCAR-3 ovarian) of the same compound?
The TGI was 2.31 µM.

And the GI50 (CAKI-1 renal)?
The GI50 was 1.93 µM.

And the TGI (CAKI-1 renal)?
Its TGI is 3.56 µM.

And the GI50 (A549 NSCLC)?
Its GI50 is 1.26 µM.

And the TGI (A549 NSCLC)?
Its TGI is 2.53 µM.

What about the GI50 (SN12C renal) of the same compound?
The GI50 was 1.56 µM.

What about the TGI (SN12C renal) of the same compound?
Its TGI is 2.91 µM.

What about the GI50 (SW-620 colon) of the same compound?
The GI50 was 1.02 µM.

And the TGI (SW-620 colon)?
Its TGI is 2.2 µM.

And the GI50 (T-47D breast)?
Its GI50 is 0.155 µM.

What about the TGI (T-47D breast) of the same compound?
The TGI was 0.55 µM.

What about the GI50 (COLO 205 colon) of the same compound?
The GI50 was 1.39 µM.

And the TGI (COLO 205 colon)?
The TGI was 2.7 µM.

What about the GI50 (SR leukemia) of the same compound?
The GI50 was 0.22 µM.

And the TGI (SR leukemia)?
Its TGI is 0.627 µM.

What about the GI50 (NCI-H322M lung) of the same compound?
Its GI50 is 2.47 µM.

And the TGI (NCI-H322M lung)?
The TGI was 5.64 µM.

What about the GI50 (PC-3 prostate) of the same compound?
Its GI50 is 1.83 µM.

What about the TGI (PC-3 prostate) of the same compound?
The TGI was 3.26 µM.

What about the GI50 (NCI-H23 lung) of the same compound?
The GI50 was 2.12 µM.

And the TGI (NCI-H23 lung)?
Its TGI is 4.21 µM.

What about the GI50 (KM12 colon) of the same compound?
The GI50 was 0.312 µM.

And the TGI (KM12 colon)?
The TGI was 1.55 µM.

And the GI50 (ACHN renal)?
The GI50 was 1.95 µM.

What about the TGI (ACHN renal) of the same compound?
The TGI was 3.39 µM.

And the GI50 (SF-295 CNS)?
The GI50 was 1.94 µM.

And the TGI (SF-295 CNS)?
Its TGI is 3.36 µM.

What about the GI50 (TK-10 renal) of the same compound?
Its GI50 is 1.75 µM.

And the TGI (TK-10 renal)?
Its TGI is 3.15 µM.

What about the GI50 (OVCAR-5 ovarian) of the same compound?
The GI50 was 1.71 µM.

What about the TGI (OVCAR-5 ovarian) of the same compound?
Its TGI is 3.15 µM.

And the GI50 (UACC-62 melanoma)?
Its GI50 is 0.176 µM.

What about the TGI (UACC-62 melanoma) of the same compound?
Its TGI is 0.349 µM.

What about the GI50 (MDA-MB-231 breast) of the same compound?
Its GI50 is 1.63 µM.

What about the TGI (MDA-MB-231 breast) of the same compound?
The TGI was 2.99 µM.

And the GI50 (SF-268 CNS)?
The GI50 was 0.283 µM.

What about the TGI (SF-268 CNS) of the same compound?
Its TGI is 1.16 µM.

And the GI50 (SF-539 CNS)?
Its GI50 is 1.72 µM.

And the TGI (SF-539 CNS)?
Its TGI is 3.1 µM.

What about the GI50 (MALME-3M melanoma) of the same compound?
The GI50 was 1.14 µM.

What about the TGI (MALME-3M melanoma) of the same compound?
Its TGI is 2.36 µM.

And the GI50 (SNB-19 CNS)?
Its GI50 is 0.586 µM.

What about the TGI (SNB-19 CNS) of the same compound?
Its TGI is 1.87 µM.

What about the GI50 (OVCAR-4 ovarian) of the same compound?
Its GI50 is 1.94 µM.

And the TGI (OVCAR-4 ovarian)?
Its TGI is 3.38 µM.

And the GI50 (HL-60(TB) leukemia)?
Its GI50 is 0.796 µM.

What about the TGI (HL-60(TB) leukemia) of the same compound?
Its TGI is 1.99 µM.

What about the TGI (RXF 393 renal) of the same compound?
The TGI was 1.09 µM.

What about the GI50 (DU-145 prostate) of the same compound?
The GI50 was 1.85 µM.

And the TGI (DU-145 prostate)?
Its TGI is 6.34 µM.

What about the GI50 (LOX IMVI melanoma) of the same compound?
Its GI50 is 1.33 µM.

What about the TGI (LOX IMVI melanoma) of the same compound?
The TGI was 2.62 µM.

What about the GI50 (SK-MEL-28 melanoma) of the same compound?
Its GI50 is 0.146 µM.

What about the TGI (SK-MEL-28 melanoma) of the same compound?
The TGI was 1.03 µM.

And the GI50 (HOP-92 NSCLC)?
Its GI50 is 1.98 µM.

What about the TGI (HOP-92 NSCLC) of the same compound?
The TGI was 3.44 µM.

What about the GI50 (MCF7 breast) of the same compound?
The GI50 was 1.46 µM.

What about the TGI (MCF7 breast) of the same compound?
The TGI was 2.79 µM.

What about the GI50 (HCT-15 colon) of the same compound?
The GI50 was 1.58 µM.

And the TGI (HCT-15 colon)?
Its TGI is 2.93 µM.

What about the GI50 ([…]-0 renal) of the same compound?
The GI50 was 1.51 µM.

What about the TGI (786-0 renal) of the same compound?
The TGI was 2.93 µM.

What about the GI50 (NCI-H460 NSCLC) of the same compound?
The GI50 was 0.288 µM.

What about the TGI (NCI-H460 NSCLC) of the same compound?
The TGI was 1.59 µM.

And the GI50 (HCT-116 colon)?
Its GI50 is 0.215 µM.

What about the TGI (HCT-116 colon) of the same compound?
The TGI was 0.49 µM.

What about the GI50 (SK-MEL-2 melanoma) of the same compound?
Its GI50 is 0.184 µM.

What about the TGI (SK-MEL-2 melanoma) of the same compound?
Its TGI is 0.524 µM.

What about the GI50 (MDA-MB-435 melanoma) of the same compound?
Its GI50 is 0.677 µM.

What about the TGI (MDA-MB-435 melanoma) of the same compound?
The TGI was 1.93 µM.
